Assays:
[1] = test system: human PBMCs (CD8+ T cells and NK cells); test: CD8+ T and NK cell activation in PBMCs by flow cytometry; assay type: cell-based; conditions: for expansion of activated CD8+ T cells / expansion of activated NK cells: 3 μM, 24 hours; for expansion of activated CD8+ T cells: FIG. 5A; for expansion of activated NK cells: FIG. 5B
Experimental: To test the effect of STING agonist compounds described herein in the activation of innate and adaptive immune cells, flow cytometry (FACS) was performed. Human THP-1 cells (Korean Cell Line Bank, #40202) and PBMCs were seeded at 1.2×10^5 cells per well in a round-bottomed 96-well plate in RPMI 1640 medium (Gibco, #22400097) supplemented with 10% heat-inactivated FBS and 1× Antibiotic-Antimycotic (Gibco, #15240062) and rested for 24 hours at 37° C. The cells were stimulated with the STING agonist compounds as described; For THP-1 stimulation, the cells were treated with the STING agonist compound (Compound 313) in a 5-fold serial dilution from 1 μM for 48 hours. The induction of cell surface activation markers, CD86 (co-stimulatory molecule) and HLA-DR (MHC-class II), was measured by flow cytometry. […] For flow cytometry analysis, the stimulated cells were centrifuged at 300 g for 5 minutes at 4° C., and then resuspended in FACS buffer (2% FBS, 2 mM EDTA in PBS). After staining cells with human Fc blocker (BD Biosciences, #564220) in FACS buffer for 10 minutes at 4° C. Subsequently, the cells were stained with fluorescence-conjugated antibodies against CD8, CD3, CD56, and CD69 for CD8 T and NK cells activation and against CD86 and MHC-II for THP-1 naïve cells activation for 40 minutes at 4° C. After washing three times with FACS buffer, the cells were resuspended in FACS buffer and analyzed by FACSlyric (BD bioscience). The data were analyzed with Flowjo 9.0 software (BD bioscience).
After treating human PBMCs with the STING agonist compounds, it was analyzed the activation of CD8^+ T cells and NK cells by measuring CD69, an activation marker, on their cell surface by flow cytometry.

[2] = target: T1, hSTING-WT (R232) (Homo sapiens, UniProt Q86WV6, H232R); test: STING activation, THP1-Dual IRF3 reporter assay, hSTING-R232 cells; assay type: cell-based; conditions: IRF3 luciferase reporter, 24 hours, read-out: STING activity using hSTING-R232 cells EC50
T1 construct: host or cells: THP1-Dual cells (human monocytes) with knocked-in hSTING R232
Experimental: To assess potency of STING agonist compounds described herein, THP1-Dual™ Cells (NF—KB-SEAP and IRF-Lucia luciferase reporter monocytes, InvivoGen) were used. The reporter cells were knocked-in either of hSTING-WT (R232, #thpd-r232), HAQ variant (#thpd-nfis), or H232 variant (#thpd-h232). All cells were cultured at 37° C. in a humidified incubator at 5% CO2 and maintained in RPMI 1640 medium (Gibco, #22400097) supplemented with 10% heat-inactivated FBS and 1×Pen-Strep (Gibco, #15140122). To measure STING agonist-mediated IRF3 activity, the cells (9.0×10^4 cells per well) were seeded in a flat-bottomed 96-well plate. The next day, the cells were treated with compounds in a serial dilution for 24 hours. Subsequently, 20 μL of the cell culture supernatant and 50 μL of the QUANTI-Luc™ reagent (InvivoGen, #rep-qlc) were mixed in a 96-well white plate and then, luciferase activity was measured using an EnVision Xcite multilabel reader. The data were analyzed using Prism8 software (4-parameter).
The potency of STING agonist compounds was evaluated by the activation of Type I Interferon pathway using THP-1 IRF3 reporter assay.

[3] = target: T2, human STING (Homo sapiens, UniProt Q86WV6, H232R); test: Direct STING binding, HUMAN STING WT BINDING KIT (Cisbio); conditions: direct binding to human STING WT protein in vitro; read-out: Binding potency EC50
T2 construct: purchased Cisbio 64BDSTGPEG
Text: Additionally, for analysis of direct binding potency of STING agonist compounds described herein to human STING, HUMAN STING WT BINDING KIT (Cisbio, #64BDSTGPEG) was used according to the manufacture's instruction.

[4] = test system: human peripheral blood mononuclear cells (PBMCs); test: Cytokine production induction in PBMCs (ELISA); assay type: cell-based; conditions: 1 μM, 24 hours; for human CXCL-10 production: FIG. 1A; for human IFNα production: FIG. 1B
Experimental: The cells (2.0×10^4 cells per well) were seeded in a flat-bottomed 96-well plate. PBMCs were stimulated with STING agonist compounds described herein (Compound 214, 221, and 230) at 1 μM for 24 hours. BxPC-3 and MDA-MB-468 tumor cells were treated with STING agonist compounds described herein (Compound 313) in a 5-fold serial dilution from […] for 24 hours, respectively. The levels of cytokines in the culture supernatants were measured using the ELISA kit (R&D systems, #DY266, #DY9345-05) according to the manufacture's instruction.
Briefly, each well of a 96-well plate was coated with 100 μL of the diluted capture antibody in PBS and incubated overnight at room temperature (RT). Next day, each well was washed with wash buffer (0.05% Tween 20 in PBS) three times using an auto-washer. The plates were blocked with 300 μL of Reagent Diluent (1% BSA in PBS) for 1 hour at RT. The aspiration/wash step was repeated. 100 μL of diluted samples or standards in Reagent Diluent was added to each well and incubated for 2 hours at RT. After wash, 100 μL of the Detection Antibody pre-diluted in Reagent Diluent was added into each well and incubated for 2 hours at RT. After wash, 100 μL of the working diluted […] in Reagent Diluent was added and incubated under subdued light conditions for 20 minutes, followed by repeated aspiration/wash. 100 μL of substrate solution (mixed H2O2 and Tetramethylbenzidine in a 1:1 ratio) was added and incubated for 20 minutes at RT in avoiding direct light exposure. The reaction was stopped by adding 50 μL of stop solution (2N H2SO4). The optical density was determined using a microplate reader (Molecular Devices VersaMax Microplate Reader). The optical density (O.D.) of each well was normalized by subtracting the reading at 570 nm from the reading at 450 nm.

[5] = Normal cell cytotoxicity in CD34+ HSC, CellTiter-Glo; assay type: cell-based; conditions: human, CD34+ hematopoietic stem cells (HSCs), read-out: In vitro cell cytotoxicity in CD34+ HSC CC50
Experimental: The CD34^+ hematopoietic stem cells (HSCs) were purchased from […]™ (#70002.3). The cells (2×10^4 cells per well) were cultured in StemSpan™ SFEM II medium supplemented with StemSpan™ CD34+ Expansion Supplement (#02691) in a 6-well plate at 37° C. for 7 days. On day 3 or 4, an equal volume of fresh complete medium was added into the cell culture. On day 7, the cells (4×10^4 cells per well) were seeded in a 96-well white plate and rested for 24 hours in the same condition.
After 72 hours, the cell viability was measured using CellTiter-Glo Luminescent Cell Viability Assay (Promega, #G7573) according to the manufacture's instruction. The signal was detected using an EnVision Xcite multilabel reader and data were analyzed using GraphPad Prism 8 software.

[6] = Plasma pharmacokinetics in naive Balb/C mouse, LC-MS/MS; assay type: in vivo; conditions: 1.5 mg/kg single IV; for AUC∞, norm / Cmax, norm: n = 3, dose-normalised; for AUC(0-inf) / AUC(0-t) / C0 / Cmax / clearance / half-life / Vd: female; for AUC(0-inf) / AUC(0-t) / C0 / Cmax: n = 3, plasma; for clearance / half-life / Vd: plasma; for clearance / half-life: n = 3; for Vd: n = 3, read-out: VSS
Experimental: For in vivo evaluation of STING agonist compounds described herein in naïve Balb/C mouse, single doses of STING agonist compounds were given at 1.5 mg/kg intravenously into female BALB/c mice (Orientbio, South Korea) at 6-8 weeks of age. Pharmacokinetics were studied following injection of the STING agonist compounds into Balb/C mice. Plasma samples were taken at various time points and stored frozen for analysis. The plasma concentrations of the STING agonist compounds at the indicated time points were measured using a LC-MS/MS analysis method.
Briefly, 250 μL of acetonitrile (ACN) solution was added in both 50 μL of sample and 50 μL of plasma containing 10 nM Dextromethorphan (internal standard), and the solutions were mixed vigorously using a vortex mixer for 5 minutes. The samples were then spun down at 14,000 rpm, 4° C. for 5 minutes. 100 μL of supernatants were combined with 100 μL of mobile phase A (0.1% formic acid in water with 5% ACN) and mixed thoroughly. The samples were measured for the STING agonist compounds using a LC-MS/MS (Nexera LC40 (SHIMADZU) and QTRAP4500 (SCIEX)).

[7] = Normal cell cytotoxicity in PBMCs, CellTiter-Glo; assay type: cell-based; conditions: human, read-out: In vitro cell cytotoxicity in PBMCs CC50
Experimental: PBMCs were also purchased from […]™ (#700025.2). The cells (8.0×10^4 cells per well) were seeded in a flat-bottomed 96-well plate in RPMI 1640 medium (Gibco, #22400097) with 10% heat-inactivated FBS and 1× Antibiotic-Antimycotic (Gibco, #15240062) and rested for 24 hours at 37° C. […] After 72 hours, the cell viability was measured using CellTiter-Glo Luminescent Cell Viability Assay (Promega, #G7573) according to the manufacture's instruction. The signal was detected using an EnVision Xcite multilabel reader and data were analyzed using GraphPad Prism 8 software.
To verify the effect of the STING agonist compounds in normal cell cytotoxicity, the PBMCs were treated with the STING agonist compounds for 3 days and measured the percentage of cell death.

T2 sequence (Q86WV6 whole entry H232R): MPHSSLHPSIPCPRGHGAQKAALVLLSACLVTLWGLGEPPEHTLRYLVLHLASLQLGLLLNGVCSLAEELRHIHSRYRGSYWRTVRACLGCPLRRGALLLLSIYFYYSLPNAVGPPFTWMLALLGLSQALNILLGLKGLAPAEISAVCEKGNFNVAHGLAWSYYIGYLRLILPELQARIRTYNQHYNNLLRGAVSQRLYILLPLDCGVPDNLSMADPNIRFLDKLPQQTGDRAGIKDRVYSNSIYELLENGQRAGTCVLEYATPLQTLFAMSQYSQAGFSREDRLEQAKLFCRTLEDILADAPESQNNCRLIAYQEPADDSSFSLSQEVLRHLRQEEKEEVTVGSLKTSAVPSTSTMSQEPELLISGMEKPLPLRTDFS
T1 sequence (Q86WV6 whole entry H232R): as above

Row | Compound | expansion of activated CD8+ T cells [1] | expansion of activated NK cells [1] | EC50 [2] [nM] | EC50 [3] [nM] | human CXCL-10 production [4] | human IFNα production [4] | CC50 at 72 h [5] [nM] | CD69 expression on CD8+ T cells ([1]; 100 nM, 48 hours, FIG. 4A) | CD69 expression on NK cells ([1]; 100 nM, 48 hours, FIG. 4B) | AUC∞, norm [6] [kg·h/L] | Cmax, norm [6] [kg/L] | AUC(0-inf) [6] [ng·h/mL] | AUC(0-t) [6] [ng·h/mL] | C0 [6] [ng/mL] | Cmax [6] [ng/mL] | clearance [6] [mL/min/kg] | half-life [6] [h] | Vd [6] [L/kg] | CC50 at 72 h [7] [nM]
1 | CCn1nc(C)cc1C(=O)Nc1nc2cc(C(N)=O)cc(OC)c2n1C/C=C/Cn1c(NC(=O)c2cc(C)nn2CC)nc2cc(C(N)=O)cc(OC/C=C/Cn3cc(NC(=O)OCc4ccc(O[C@@H]5O[C@H](C(=O)O)[C@@H](O)[C@H](O)[C@H]5O)c(C(=O)NCCOCCOCCO[C@@H]5O[C@H](C(=O)O)[C@@H](O)[C@H](O)[C@H]5O)c4)cn3)c21 [Compound 344] | enhanced expansion | enhanced expansion | 11.1 | 0.24 | – | – | – | – | – | – | – | – | – | – | – | – | – | – | –
2 | CCn1nc(C)cc1C(=O)Nc1nc2cc(C(N)=O)cc(OC)c2n1C/C=C/Cn1c(NC(=O)c2cc(C)nn2CC)nc2cc(C(N)=O)cc(OCc3cccc(NC(=O)OCc4ccc(O[C@@H]5O[C@H](C(=O)O)[C@@H](O)[C@H](O)[C@H]5O)c(C(=O)NCCOC)c4)c3)c21 [Compound 230] | – | – | 3.96 | – | induced cytokine production | induced cytokine production | – | – | – | – | – | – | – | – | – | – | – | – | –
3 | CCn1nc(C)cc1C(=O)Nc1nc2cc(C(N)=O)cc(OC)c2n1C/C=C/Cn1c(NC(=O)c2cc(C)nn2CC)nc2cc(C(N)=O)cc(OC/C=C/Cn3cc(NC(=O)OCc4ccc(O[C@@H]5O[C@H](C(=O)O)[C@@H](O)[C@H](O)[C@H]5O)c(C(=O)NCCOCCOCCO)c4)cn3)c21 [Compound 277] | – | – | 27.4 | 0.2 | – | – | 13.5 | enhanced CD69 expression | enhanced CD69 expression | 7.37 ± 0.25 | 4.04 ± 0.24 | 11100 ± 370 | 10500 ± 490 | 6530 ± 320 | 6060 ± 360 | 2.33 | 1.38 ± 0.19 | 0.27 ± 0.03 | 32.1
4 | CCn1nc(C)cc1C(=O)Nc1nc2cc(C(N)=O)cc(OC)c2n1CC=CCn1c(NC(=O)c2cc(C)nn2CC)nc2cc(C(N)=O)cc(OCCCN3CCN(C(=O)OCc4ccc(OC5OC(C(=O)O)C(O)C(O)C5O)c(C(=O)NCCOC)c4)CC3=O)c21 (centres unmarked) [Compound 221] | – | – | 68.3 | – | induced cytokine production | induced cytokine production | – | – | – | 4.53 ± 0.15 | 5.37 ± 0.30 | 6800 ± 230 | 6670 ± 220 | 9790 ± 430 | 8060 ± 450 | 3.67 | 1.06 ± 0.04 | 0.26 ± 0.01 | –
5 | CCn1nc(C)cc1C(=O)Nc1nc2cc(C(N)=O)cc(OC/C=C/Cn3cc(NC(=O)OCc4ccc(O[C@@H]5O[C@H](C(=O)O)[C@@H](O)[C@H](O)[C@H]5O)c(C(=O)NCCOCCOCCN5CCOCC5)c4)cn3)c2n1C/C=C/Cn1c(NC(=O)c2cc(C)nn2CC)nc2cc(C(N)=O)cc(OCCCC(=O)O)c21 [Compound 361] | enhanced expansion | enhanced expansion | 35.8 | 0.1 | – | – | – | – | – | – | – | – | – | – | – | – | – | – | –
